Key:
[1] = biological target: T1, STAT3 (pY705, pS727) (Homo sapiens, UniProt P40763); assay: JAK/STAT phospho antibody array, phospho-STAT3 in EGF-treated MDA-MB-468 cells; format: cell-based; details: EGF (25 ng) + 5 nM compound, 6 hrs
T1 construct: endogenous in cells; host or cells: MDA-MB-468
Method: FIG. 5 illustrates an embodiment of the present invention and illustrates evaluations of SIM-1 and SIM-2 as STAT3 inhibitors. (A) Protein thermal shift assay was performed to assess the melting of purified recombinant STAT3 (blue; 0.5 μg protein) (Tm=melting temperature=68.88° C.). The representative melting curves were derived after adding SIM-1 (red; 4 nM), SIM-2 (purple; 8 nM), and positive control stattic (grey; 20 nM) to the STAT3 protein. The differences of melting temperature (ΔTm) between pure protein and protein+ligands are −4.54° C., −4.16° C., and 0.39° C. for SIM-1, SIM-2, and stattic (ΔTm^cut-off>2° C.). […] Each colored arrowhead represents a specific phosphoprotein, and the description was added in the bottom of array images. […] Similarly, full-length STAT5b protein melting was assessed with (J) SIM-1, (K) SIM-2, and (L) stattic. […]
Protein array. […] After that, cells were scrapped with 1×TBS, lysed with lysis buffer supplemented with protease and phosphatase inhibitor cocktail, measured for total protein concentration ([…]), diluted 5 times with assay diluent buffer and then applied along with biotin-labeled probes on the glass membrane coated with antibodies. […]
Next, the present invention evaluated if these compounds as disclosed in the present invention as small-molecule inhibitors targeting STAT3 activation, inhibited the activation of STAT3, but not other STATs. […]

[2] = Solubility in aqueous solvent; format: physicochemical
[3] = test system: cell cycle genes in TNBC tumors; assay: Real-time PCR of cell cycle genes in PDX tumors; format: in vivo, mouse; details: tumor tissue
Method: FIG. 13 illustrates an embodiment of the present invention and illustrates the effects of SIM-1 and SIM-2 on the growth arrest of TNBC tumors. […] The higher magnification images were given below. (B) Area of 50 randomly selected cells (10 different images from n=5 mice/group) from three different groups were measured using polygon tool of ImageJ software and then the scatter histogram analysis was performed using GraphPad Prism 10 statistical software package. The significance of mean between groups (***p<0.001 versus control) was calculated by one-way ANOVA analysis (effector: treatment). (C) IHC staining of cell growth marker Ki-67 in vehicle-, SIM-1-, and SIM-2-treated tumors represents the cell growth property of tumor cells. […] Both hematoxylin-ir nuclei (total cells) and Ki-67-ir cells were counted in n=15 images per group, converted in percent scale, and then plotted as scatter histogram. ****p<0.0001 vs. control as derived by one-way ANOVA. (E) IHC staining of cell proliferation marker PCNA in three different groups. (F) Scatter histogram analysis of […] counted from n=15 images per group and then plotted as percent scale. […] (G) A gene array of 84 genes in a validated human breast cancer gene array (RT^2 Profiler™ PCR array; Cat #PAHS-131ZA; Qiagen) was conducted in cDNA samples extracted from TNBC tumors of vehicle, SIM-1- and SIM-2-treated (n=3) groups. The resultant gene expressions were converted in log scale and then compared with the vehicle in (G) SIM-1 and (H) SIM-2 treated groups as shown in scatter plots. […] (I) Validation of gene expressions of CCND1, CCND2, CCNE1, CDK2 genes were performed by real-time PCR analysis. (J) Upregulations of CDKN1A, and CDKN2A in SIM-1- and SIM-2-treated groups were validated by real-time PCR analyses. were Significance of mean calculated by one-way ANOVA resulted […] versus respective vehicle-groups. The results are confirmed after three different experiments.
To assess the histopathological changes in tumor parenchyma, H&E staining of tumor tissue was performed in three different groups (FIG. 13A). The hematoxylin-stained cells appeared with enlarged and densely colored nuclei characteristic of growing and mitotic tumor cells. […] The result was further corroborated with the quantitative analyses of cell size (FIG. 13B). […] To further confirm, we performed a gene array with a validated RNA array kit (Qiagen) of genes that are involved in the growth and proliferation of breast cancer cells. Relative expressions of different genes were summarized by heatmap clusterogram analyses (FIG. 14D).

T1 sequence (P40763 whole entry): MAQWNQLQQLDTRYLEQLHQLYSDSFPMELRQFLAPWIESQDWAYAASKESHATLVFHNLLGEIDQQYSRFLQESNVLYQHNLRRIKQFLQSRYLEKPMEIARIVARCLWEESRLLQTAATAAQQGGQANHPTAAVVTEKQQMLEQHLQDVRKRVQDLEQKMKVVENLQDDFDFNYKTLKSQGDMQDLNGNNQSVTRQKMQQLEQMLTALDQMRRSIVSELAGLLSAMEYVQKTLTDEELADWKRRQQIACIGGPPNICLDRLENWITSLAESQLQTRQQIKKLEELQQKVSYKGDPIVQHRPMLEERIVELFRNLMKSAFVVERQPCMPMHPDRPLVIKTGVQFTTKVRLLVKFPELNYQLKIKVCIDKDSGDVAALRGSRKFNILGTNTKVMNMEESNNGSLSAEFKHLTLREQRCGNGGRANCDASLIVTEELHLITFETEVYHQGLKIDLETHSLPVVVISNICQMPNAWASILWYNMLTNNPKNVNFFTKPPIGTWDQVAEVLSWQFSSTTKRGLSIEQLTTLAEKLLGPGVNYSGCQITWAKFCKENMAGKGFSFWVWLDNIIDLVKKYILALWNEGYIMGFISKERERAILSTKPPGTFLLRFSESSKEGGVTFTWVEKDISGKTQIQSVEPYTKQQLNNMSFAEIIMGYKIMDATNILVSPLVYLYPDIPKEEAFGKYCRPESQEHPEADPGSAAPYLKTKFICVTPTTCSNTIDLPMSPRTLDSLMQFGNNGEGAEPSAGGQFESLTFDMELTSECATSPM

SMILES | levels of pY705 STAT3 [1] | solubility in aqueous solvent [2] | expression of CCND1, CCND2, CCNE1 and CDK2 (real-time PCR) [3] | expression of CDKN1A and CDKN2A (real-time PCR) [3]
CCOC(=O)c1c(NC(C)=O)sc2c(Cl)c(/C=N/O)ccc12 [SIM-2, ethyl 2-acetamido-7-chloro-6-(hydroxyiminomethyl)-1-benzothiophene-3-carboxylate] | strongly and selectively suppressed | partly soluble to insoluble | strongly suppressed | significantly induced
O=C(O)CCC(=O)NCc1csc2ccc(Cl)cc12 [SIM-1, 4-[(5-chloro-1-benzothiophen-3-yl)methylamino]-4-oxobutanoic acid] | strongly and selectively suppressed | partly soluble to insoluble | strongly suppressed | significantly induced
